Measured values reported in patent US4604239A, “Antibiotics” (Eli Lilly and Company, priority 1985, dated 1986).
Values after ≈ are worked out from the molar mass of the structure shown.

Assays:
[1] = tested on: Bacteroides vulgatis; assay: agar-dilution MIC; format: cell-based; details: Bacteroides vulgatis 1211; Table 14
[2] = tested on: Hemophilus influenzae; assay: agar-dilution MIC; format: cell-based
[3] = solubility; format: physicochemical
[4] = tested on: Staphylococcus aureus; assay: agar-dilution MIC; format: cell-based
[5] = tested on: Peptococcus prevoti; assay: agar-dilution MIC; format: cell-based
[6] = tested on: Streptococcus pyogenes; assay: agar-dilution MIC; format: cell-based
Description: (§1) The agar-dilution procedure described by the International Collaborative study (ICS) group was used to determine the minimum inhibitory concentrations (MIC's).

[7] = tested on: Streptococcus sp. (Group D); assay: agar-dilution MIC; format: cell-based
Description: as §1

With `NC1C(=O)NC2Cc3ccc(c(Cl)c3)Oc3cc4cc(c3O)Oc3ccc(cc3Cl)C(O)C3NC(=O)C(NC(=O)C4NC(=O)C(NC2=O)c2cc(O)cc(c2)Oc2cc1ccc2O)c1cc(Cl)c(O)c(c1)-c1c(O)cc(O)cc1C(C(=O)O)NC3=O` (stereo not shown) [A41030 factor A] the MIC [1] was 32 µg/mL (≈ 25.9 µM), the MIC ([2]; Haemophilus influenzae 76, end point after 24 hours, Table 18) was 4 µg/mL (≈ 3.24 µM) and the MIC ([2]; Haemophilus influenzae 251, Table 17) was 2 µg/mL (≈ 1.62 µM). For the same compound, the MIC ([2]; Haemophilus influenzae 312, end point after 24 hours, Table 18) was 2 µg/mL (≈ 1.62 µM), the MIC ([2]; Haemophilus influenzae 4842, end point after 24 hours, Table 18) was 2 µg/mL (≈ 1.62 µM) and the MIC ([2]; Haemophilus influenzae 16836, end point after 24 hours, Table 18) was 4 µg/mL (≈ 3.24 µM). The MIC ([2]; Haemophilus influenzae Bond, end point after 24 hours, Table 18) was 2 µg/mL (≈ 1.62 µM), the MIC ([2]; Haemophilus influenzae Brun, Table 17) was 8 µg/mL (≈ 6.49 µM) and the MIC ([2]; Haemophilus influenzae C.L., end point after 24 hours, Table 18) was 4 µg/mL (≈ 3.24 µM). For the same compound, the MIC ([2]; Haemophilus influenzae Mx366, end point after 24 hours, Table 18) was 2 µg/mL (≈ 1.62 µM), the MIC ([2]; Haemophilus influenzae Mx371, end point after 24 hours, Table 18) was 2 µg/mL (≈ 1.62 µM) and the MIC ([2]; Hemophilus influenzae 75-312, Table 9) was 8 µg/mL (≈ 6.49 µM). The MIC ([2]; Hemophilus influenzae 75-313, Table 9) was 16 µg/mL (≈ 13 µM), the MIC ([2]; Hemophilus influenzae 75-364, Table 9) was 16 µg/mL (≈ 13 µM) and the MIC ([2]; Hemophilus influenzae 75-465, Table 9) was 32 µg/mL (≈ 25.9 µM). The MIC ([2]; Hemophilus influenzae 75-19300, Table 9) was 16 µg/mL (≈ 13 µM), the MIC ([2]; Hemophilus influenzae 75-90383, Table 9) was 16 µg/mL (≈ 13 µM) and the MIC ([2]; Hemophilus influenzae 4842, Table 9) was 8 µg/mL (≈ 6.49 µM). For the same compound, the MIC ([2]; Hemophilus influenzae A. Hall, Table 9) was 16 µg/mL (≈ 13 µM), the MIC ([2]; Hemophilus influenzae Bruno, Table 9) was 16 µg/mL (≈ 13 µM) and the MIC ([2]; Hemophilus influenzae C. Steele, Table 9) was 16 µg/mL (≈ 13 µM). The MIC ([2]; Hemophilus influenzae G. Newton, Table 9) was 32 µg/mL (≈ 25.9 µM), the MIC ([2]; Hemophilus influenzae Howard, Table 9) was 16 µg/mL (≈ 13 µM) and the MIC ([2]; Hemophilus influenzae Miller, Table 9) was 16 µg/mL (≈ 13 µM). The MIC ([2]; Hemophilus influenzae P. Wylie, Table 9) was 16 µg/mL (≈ 13 µM), the MIC ([2]; Hemophilus influenzae R251, Table 9) was 16 µg/mL (≈ 13 µM) and the MIC ([2]; Hemophilus influenzae R259, Table 9) was 16 µg/mL (≈ 13 µM). It also gave an MIC ([2]; Hemophilus influenzae R272, Table 9) of 16 µg/mL (≈ 13 µM), an MIC ([2]; Hemophilus influenzae R274, Table 9) of 16 µg/mL (≈ 13 µM) and an MIC ([2]; Hemophilus influenzae S. Ford, Table 9) of 16 µg/mL (≈ 13 µM). The “solubility (solvents)” value [3] was “soluble in alcohol-water mixtures, in dimethylsulfoxide, in dimethylformamide, in dimethylsulfoxide-water mixtures, in dimethylformamide-water mixtures, in dilute aqueous acid, and in dilute aqueous base”, the MIC ([4]; Staphylococcus aureus 3055, Table 11) was 0.13 µg/mL (≈ 0.105 µM) and the MIC ([4]; Staphylococcus aureus 3055, end point after 24 hours, Table 18) was 0.06 µg/mL (≈ 0.0486 µM). The MIC ([4]; Staphylococcus aureus 3074, Penicillin-resistant, Table 11) was ≤ 0.06 µg/mL, the MIC ([4]; Staphylococcus aureus 3131 (**Penicillin, methicillin, and erythromycin), Table 11) was ≤ 0.06 µg/mL and the MIC ([4]; Staphylococcus aureus 3134 (**Penicillin, methicillin, and erythromycin), Table 11) was ≤ 0.06 µg/mL. The MIC ([4]; Staphylococcus aureus H43, Penicillin-resistant, Table 11) was ≤ 0.06 µg/mL, the MIC ([4]; Staphylococcus aureus H290, Table 11) was ≤ 0.06 µg/mL and the MIC ([4]; Staphylococcus aureus S13E, Table 17) was 0.25 µg/mL (≈ 0.203 µM). For the same compound, the MIC ([4]; Staphylococcus aureus V57, Penicillin-resistant, Table 11) was ≤ 0.06 µg/mL, the MIC ([4]; Staphylococcus aureus V138, end point after 24 hours, Table 18) was 0.06 µg/mL (≈ 0.0486 µM) and the MIC ([5]; Pc. prevoti 1281, Table 15) was 0.5 µg/mL (≈ 0.405 µM). For the same compound, the MIC ([5]; Peptococcus prevoti 1281, Table 14) was ≤ 0.25 µg/mL, the MIC ([6]; Streptococcus pyogenes 9943, Table 11) was 0.25 µg/mL (≈ 0.203 µM) and the MIC ([6]; Streptococcus pyogenes 10389, Table 11) was 0.25 µg/mL (≈ 0.203 µM). It also gave an MIC ([6]; Streptococcus pyogenes 12344, Table 11) of 0.5 µg/mL (≈ 0.405 µM), an MIC ([6]; Streptococcus pyogenes C203, Table 11) of 0.25 µg/mL (≈ 0.203 µM) and an MIC ([6]; Streptococcus pyogenes C203, Table 17) of 0.5 µg/mL (≈ 0.405 µM). It also gave an MIC ([6]; Streptococcus pyogenes C203, end point after 24 hours, Table 18) of 0.25 µg/mL (≈ 0.203 µM), an MIC ([6]; Streptococcus pyogenes M-6517, Table 11) of 0.25 µg/mL (≈ 0.203 µM) and an MIC ([7]; Streptococcus sp. (Group D) 238, Table 11) of 0.25 µg/mL (≈ 0.203 µM). It also gave an MIC ([7]; Streptococcus sp. (Group D) 282, Table 11) of 0.25 µg/mL (≈ 0.203 µM), an MIC ([7]; Streptococcus sp. (Group D) 9901, Table 11) of 0.25 µg/mL (≈ 0.203 µM) and an MIC ([7]; Streptococcus sp. (Group D) 12253F, Table 11) of 0.25 µg/mL (≈ 0.203 µM). For the same compound, the MIC ([7]; Streptococcus sp. (Group D) Guze, Table 11) was 0.25 µg/mL (≈ 0.203 µM), the MIC ([7]; Streptococcus sp. Group D 2041, end point after 24 hours, Table 18) was 0.5 µg/mL (≈ 0.405 µM) and the MIC ([7]; Streptococcus sp. Group D 2058, end point after 24 hours, Table 18) was 0.5 µg/mL (≈ 0.405 µM). It also gave an MIC ([7]; Streptococcus sp. Group D 8043, end point after 24 hours, Table 18) of 0.25 µg/mL (≈ 0.203 µM), an MIC ([7]; Streptococcus sp. Group D 9901, end point after 24 hours, Table 18) of 1 µg/mL (≈ 0.811 µM) and an MIC ([7]; Streptococcus sp. Group D 9960, Table 17) of 2 µg/mL (≈ 1.62 µM). It also gave an MIC ([7]; Streptococcus sp. Group D 9960, end point after 24 hours, Table 18) of 0.5 µg/mL (≈ 0.405 µM), an MIC ([7]; Streptococcus sp. Group D 12253F, end point after 24 hours, Table 18) of 0.25 µg/mL (≈ 0.203 µM) and an MIC ([7]; Streptococcus sp. Group D Mx161, end point after 24 hours, Table 18) of 0.25 µg/mL (≈ 0.203 µM). It also gave an MIC ([7]; Streptococcus sp. Group D X66, Table 17) of 1 µg/mL (≈ 0.811 µM).
